One block for each molecule: values may come before it.
Experiments:
[1] = system: mice (liver); experiment: In vivo 13C-MR spectroscopy in mice (liver); set-up: species or system C57Bl/6 mouse; settings: liver surface coil; 200 μl of about 60 mM imaging medium; 9.4 T
Experimental: 200 μl of an imaging medium which was prepared as described in Example 1 was injected into a C57Bl/6 mouse over a time period of 6 s. The sodium ^13C1-lactate concentration in said imaging medium was about 60 mM. A surface coil (tuned for proton and carbon) was positioned over the liver of the animal and ^13C-MR spectroscopy was carried out in a 9.4 T magnet. A dynamic set of ^13C-MR spectra (in total 20) was acquired every 5 s with a 30 degree RF pulse. Again a significant amount of metabolism was seen including ^13C1-pyruvate (approximately 3% of the ^13C1-lactate signal), followed by ^13C1-alanine (approximately 3.5% of the ^13C1-lactate signal) at a later point of time (FIG. 3).

[2] = system: mice (heart); experiment: In vivo 13C-MR spectroscopy in mice (heart); set-up: species or system C57Bl/6 mouse; settings: heart surface coil; 200 μl of about 60 mM imaging medium; 9.4 T
Experimental: 200 μl of an imaging medium which was prepared as described in Example 1 was injected into a C57Bl/6 mouse over a time period of 6 s. The sodium ^13C1-lactate concentration in said imaging medium was about 60 mM and 2 animals were used in the experiment. A surface coil (tuned for proton and carbon) was positioned over the heart of the animal and ^13C-MR spectroscopy was carried out in a 9.4 T magnet. A dynamic set of ^13C-MR spectra (in total 20) was acquired every 5 s with a 30 degree RF pulse. Again a significant amount of metabolism was seen including ^13C1-pyruvate (approximately 2% of the ^13C1-lactate signal), followed by ^13C1-alanine at a later point of time. ^13C1-bicarbonate (approximately 0.5% of the ^13C1-lactate signal) was observable at a similar peak time as ^13C1-pyruvate (FIG. 5).

[3] = Liquid state polarisation by liquid state 13C-NMR at 400 MHz; type: physicochemical
Experimental: In a similar way, the level of polarisation for dissolved hyperpolarised ^13C-lactate may be determined by liquid state NMR measurements. Again the signal intensity of the dissolved hyperpolarised ^13C-lactate is compared with the signal intensity of the dissolved ^13C-lactate before polarisation. The level of polarisation is then calculated from the ratio of the signal intensities of ^13C-lactate before and after polarisation.
After 60 min dynamic nuclear polarisation, the frozen polarised composition obtained was dissolved in 6 ml phosphate buffer (20 mM, pH 7.4, 100 mg/l EDTA). The pH of the final solution containing the dissolved composition was 7.4±0.1. The sodium ^13C1-L-lactate concentration in said final solution was 60±2 mM.
Liquid state polarisation was determined by liquid state ^13C-NMR at 400 MHz to be 18-20%.
After an overnight dynamic nuclear polarisation, the frozen polarised composition obtained was dissolved in 6 ml phosphate buffer (40 mM, pH 7.3, osmolality match to 200 mM with NaCl, 100 mg/l EDTA, 1 eq. NaOH). The pH of the final solution containing the dissolved composition was 7.1. The D-lactate concentration in said final solution was 40 mM.
(§1) Liquid state polarisation was determined by liquid state ^13C-NMR at 400 MHz to be 14%. The liquid state relaxation (T1 at 9.4 T) was determined to 44 s.

[4] = system: Hep-G2 cells; experiment: In vitro 13C-MR spectroscopy in Hep-G2 cells; type: in vitro ADME
Experimental: An imaging medium was prepared as described in Example 1 and 25 μl of the imaging medium (2.7 mM sodium ^13C1-lactate) was mixed into 10 M Hep-G2 cells. A dynamic set of ^13C-MR spectra was acquired every 5 s with a 15 degree RF pulse. ^13C1-pyruvate was clearly building up over time. The average conversion was 0.3% with a peak conversion (0.4%) approximately 20 s into the experiment.

[5] = system: mice (whole body); experiment: In vivo 13C-MR spectroscopy in mice (whole body); set-up: species or system C57Bl/6 mouse
Experimental: 200 μl of an imaging medium which was prepared as described in Example 1 was injected into a C57Bl/6 mouse over a time period of 6 s. The sodium ^13C1-lactate concentration in said imaging medium was 60-90 mM and 3 animals were used in the experiment. A rat size whole body coil (tuned for proton and carbon) was placed over the animal and ^13C-MR spectroscopy was carried out in a 9.4 T magnet. A dynamic set of ^13C-MR spectra (in total 30) was acquired every 3 s with a 15 degree RF pulse. […] The following decay times were calculated from the MR spectra: ^13C1-pyruvate 23 s, ^13C1-alanine 33 s and ^13C1-bicarbonate 24 s.

[6] = Solid state polarisation by solid state 13C-NMR after DNP; type: physicochemical
Source text: The level of polarisation may for instance be determined by solid state ^13C-NMR measurements in solid hyperpolarised ^13C-lactate, e.g. solid hyperpolarised ^13C-lactate obtained by dynamic nuclear polarisation (DNP) of ^13C-lactate. The solid state ^13C-NMR measurement preferably consists of a simple pulse-acquire NMR sequence using a low flip angle. The signal intensity of the hyperpolarised ^13C-lactate in the NMR spectrum is compared with signal intensity of ^13C-lactate in a NMR spectrum acquired before the polarisation process. The level of polarisation is then calculated from the ratio of the signal intensities before and after polarisation.
The probe is inserted into the probe-retaining container, submerged in the liquid helium and irradiated with microwaves. The microwave frequency may be determined from the EPR line of the DNP agent, which depends on the magnetic field of the magnet as 28.0 GHz/T. The optimal microwave frequency may be determined by adjusting the frequency for maximal NMR signal. Preferably, the optimal microwave frequency is in the about 94 GHz for a magnet charged to 3.35 T, 110 GHz for a magnet charged to 4 T, 140 GHz for a magnet charged to 5 T and 200 GHz for a magnet charged to 7 T. The power may be chosen between 50 and 200 mW, dependent on the probe size. The level of polarisation may be monitored as earlier described by for instance acquiring solid state ^13C-NMR signals of the probe during microwave irradiation. Generally, a saturation curve is obtained in a graph showing NMR signal vs. time. […] A solid state ^13C-NMR measurement suitably consists of a simple pulse-acquire NMR sequence using a low flip angle. […] The polarisation is then calculated from the ratio of the signal intensities before and after DNP.
To a micro test tube was added sodium ^13C1-L-lactate solution (78.5 mg, Aldrich, 50% w/w sodium ^13C1-lactate). […] Polarisation was followed by solid state ^13C-NMR and the solid state polarisation was determined to be 20%.

[7] = T1 relaxation in human full blood at 37° C.; type: physicochemical
Source text: The isotopic enrichment of the hyperpolarised ^13C-lactate used in the method of the invention is preferably at least 75%, more preferably at least 80% and especially preferably at least 90%, an isotopic enrichment of over 90% being most preferred. Ideally, the enrichment is 100%. ^13C-lactate used in the method of the invention may be isotopically enriched at the C1-position (in the following denoted ^13C1-lactate), at the C2-position (in the following denoted ^13C2-lactate), at the C3-position (in the following denoted ^13C3-lactate), at the C1- and the C2-position (in the following denoted ^13C1,2-lactate), at the C1- and the C3-position (in the following denoted ^13C1,3-lactate), at the C2- and the C3-position (in the following denoted ^13C2,3-lactate) or at the C1-, C2- and C3-position (in the following denoted ^13C1,2,3-lactate). Isotopic enrichment at the C1-position is the most preferred since ^13C1-lactate has a higher, i.e. longer T1 relaxation in human full blood at 37° C. than ^13C-lactate which is isotopically enriched at other C-positions.

[8] = Liquid state relaxation (T1 at 9.4 T); type: physicochemical; settings: Example 5b
Experimental: as §1

[9] = 200 μl of 60-90 mM imaging medium injected over 6 s, 9.4 T

13C1-alanine signal as % of the 13C1-lactate signal [1]: approximately 3.5%
13C1-bicarbonate levels observed [1]: very low levels
13C1-pyruvate signal as % of the 13C1-lactate signal [1]: approximately 3%
13C1-bicarbonate signal as % of the 13C1-lactate signal [2]: approximately 0.5%
13C1-pyruvate signal as % of the 13C1-lactate signal [2]: approximately 2%
liquid state polarisation ([3]; Example 1b, after 60 min DNP, dissolved in 6 ml phosphate buffer pH 7.4, 13C-NMR at 400 MHz): 18-20%
liquid state polarisation ([3]; Example 2, water/glycerol mixture (75:25), dissolved as in Example 1b): 15-20%
liquid state polarisation ([3]; Example 3, water/glycerol mixture (50:50), dissolved as in Example 1b): 25%
peak conversion to 13C1-pyruvate ([4]; 25 μl imaging medium (2.7 mM sodium 13C1-lactate) mixed into 10 M Hep-G2 cells): 0.4%
average conversion to 13C1-pyruvate ([4]; 25 μl imaging medium (2.7 mM sodium 13C1-lactate) mixed into 10 M Hep-G2 cells, spectra every 5 s): 0.3%
time of peak conversion to 13C1-pyruvate ([4]; Hep-G2 cells, time into the experiment): approximately 20 s
13C1-alanine signal as % of the 13C1-lactate signal [5, 9]: approximately 1.5%
13C1-bicarbonate signal as % of the 13C1-lactate signal [5, 9]: approximately 0.5%
13C1-pyruvate signal as % of the 13C1-lactate signal [5, 9]: approximately 2%
decay time of 13C1-alanine signal ([5]; calculated from the MR spectra): 33 s
decay time of 13C1-bicarbonate signal ([5]; calculated from the MR spectra): 24 s
decay time of 13C1-pyruvate signal ([5]; calculated from the MR spectra): 23 s
solid state polarisation ([6]; Example 1a, aqueous trityl radical and Gd-chelate solutions, DNP at 1.2 K, 3.35 T, 94 GHz): 20%
solid state polarisation ([6]; Example 2, water/glycerol mixture (75:25) for trityl and Gd-chelate solutions): 17-20%
solid state polarisation ([6]; Example 3, water/glycerol mixture (50:50) for trityl and Gd-chelate solutions): 25%
Structure (SMILES): C[C@H](O)[13C](=O)[O-].[Na+] [sodium ^13C1-L-lactate]

T1 relaxation versus 13C-lactate enriched at other C-positions [7]: longer
Structure (SMILES): C[C@H](O)[13C](=O)O [^13C1-lactate]

liquid state polarisation ([3]; Example 5b, overnight DNP of D-lactic acid, dissolved in phosphate buffer with 1 eq. NaOH, 13C-NMR at 400 MHz): 14%
liquid state relaxation (T1) [8]: 44 s
Structure (SMILES): C[C@@H](O)C(=O)O [D-lactate]

Source: patent publication US20100196283A1, “METHOD AND IMAGING MEDIUM FOR USE IN THE METHOD” (priority 2007, published 2010)
